Reference: ChEMBL document CHEMBL1139023, “The reversed binding of beta-phenethylamine inhibitors of DPP-IV: X-ray structures and properties of novel fragment and elaborated inhibitors” (Bioorg Med Chem Lett, 2006)

Experiments:
Dipeptidyl peptidase 4 [1] = target: Dipeptidyl peptidase 4 (Sus scrofa, UniProt P22411); test: (§1) Inhibition of DPP4 by continuous fluorimetric assay
Dipeptidyl peptidase 4 [2] = target: Dipeptidyl peptidase 4 (Homo sapiens, UniProt P27487); test: as §1
[3] = target: Dipeptidyl peptidase 4 (Sus scrofa) (UniProt P22411); test: Inhibition of DPP4 by continuous fluorimetric assay at 100 nM
Dipeptidyl peptidase 4 (Sus scrofa), sequence (P22411 whole entry, looked up): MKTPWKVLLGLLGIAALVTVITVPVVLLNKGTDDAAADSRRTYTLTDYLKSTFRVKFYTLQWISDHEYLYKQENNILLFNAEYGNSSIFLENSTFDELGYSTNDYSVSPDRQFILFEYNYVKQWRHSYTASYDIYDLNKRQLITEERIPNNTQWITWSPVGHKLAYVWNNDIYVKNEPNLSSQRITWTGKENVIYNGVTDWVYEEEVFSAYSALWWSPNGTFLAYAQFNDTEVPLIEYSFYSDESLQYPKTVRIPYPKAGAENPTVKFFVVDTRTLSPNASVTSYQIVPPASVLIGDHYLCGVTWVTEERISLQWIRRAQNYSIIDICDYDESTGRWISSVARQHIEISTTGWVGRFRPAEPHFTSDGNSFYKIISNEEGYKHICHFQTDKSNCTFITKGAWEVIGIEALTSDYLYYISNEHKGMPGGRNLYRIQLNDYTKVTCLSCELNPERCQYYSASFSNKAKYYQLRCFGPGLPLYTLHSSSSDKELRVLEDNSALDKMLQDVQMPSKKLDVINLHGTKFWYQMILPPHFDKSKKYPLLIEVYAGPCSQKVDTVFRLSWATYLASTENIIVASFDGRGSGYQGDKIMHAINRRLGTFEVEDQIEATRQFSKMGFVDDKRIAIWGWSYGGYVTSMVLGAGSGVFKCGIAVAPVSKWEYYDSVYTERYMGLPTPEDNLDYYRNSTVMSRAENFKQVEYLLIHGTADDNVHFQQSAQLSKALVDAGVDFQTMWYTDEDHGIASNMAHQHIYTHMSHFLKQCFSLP

Dipeptidyl peptidase 4 (Sus scrofa, UniProt P22411), sequence (P22411 whole entry): as the sequence (P22411 whole entry, looked up) above
Dipeptidyl peptidase 4 (Homo sapiens, UniProt P27487), sequence (P27487 whole entry): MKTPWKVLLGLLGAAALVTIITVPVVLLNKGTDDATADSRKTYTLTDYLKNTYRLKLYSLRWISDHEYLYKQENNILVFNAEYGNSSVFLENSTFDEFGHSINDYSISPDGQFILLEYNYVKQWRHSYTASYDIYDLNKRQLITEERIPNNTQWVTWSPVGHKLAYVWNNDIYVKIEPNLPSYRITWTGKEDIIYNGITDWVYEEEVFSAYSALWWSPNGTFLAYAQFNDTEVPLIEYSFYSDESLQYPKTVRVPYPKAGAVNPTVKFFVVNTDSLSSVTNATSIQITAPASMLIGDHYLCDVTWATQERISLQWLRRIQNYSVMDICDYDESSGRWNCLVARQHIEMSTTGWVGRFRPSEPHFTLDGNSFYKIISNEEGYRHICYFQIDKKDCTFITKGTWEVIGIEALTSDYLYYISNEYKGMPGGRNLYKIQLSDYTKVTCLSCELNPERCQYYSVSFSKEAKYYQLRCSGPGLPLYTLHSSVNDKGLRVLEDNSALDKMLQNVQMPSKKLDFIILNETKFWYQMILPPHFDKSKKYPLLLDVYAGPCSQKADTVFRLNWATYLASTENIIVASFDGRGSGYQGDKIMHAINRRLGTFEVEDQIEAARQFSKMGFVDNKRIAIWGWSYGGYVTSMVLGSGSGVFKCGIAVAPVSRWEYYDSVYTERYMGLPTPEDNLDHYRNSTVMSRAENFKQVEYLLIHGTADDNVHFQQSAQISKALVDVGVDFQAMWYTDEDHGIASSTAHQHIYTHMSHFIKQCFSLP

SMILES | IC50 (Dipeptidyl peptidase 4 [1]) [µM] | IC50 (Dipeptidyl peptidase 4 [2]) [µM] | inhibition [3] [%]
NCC(c1ccccc1Cl)N1CCOCC1 (stereo not given) | 46 |  | 
N[C@@H](CC(=O)N1CCC[C@H]1CNC(=O)c1ccccc1)Cc1ccccc1F | 0.41 |  | 
NCC1(c2ccccc2)CCCC1 | 30 |  | 
NC(=O)[C@@H]1Cc2ccccc2CN1C(=O)C[C@H](N)Cc1ccccc1F |  | 0.023 | 60
